Experimental data published in article PMC11864979, “First-in-class ultralong-target-residence-time p38α inhibitors as a mitosis-targeted therapy for colorectal cancer” (Nature Cancer, 2025).
Like-named read-outs stand apart in the source and are kept apart here.

Key:
Test in all cases: selectivity profiling in a panel of 340 wild-type kinases (Reaction Biology Europe)
Type in all cases: binding
340 wild-type kinases [1] = target: T1, 340 wild-type kinases (Homo sapiens, UniProt Q15418)
T1 construct: purchased Reaction Biology Europe

340 wild-type kinases [2] = target: T2, 340 wild-type kinases (Homo sapiens, UniProt P08581)
T2 construct: purchased Reaction Biology Europe

340 wild-type kinases [3] = target: T3, 340 wild-type kinases (Homo sapiens, UniProt Q13470)
T3 construct: purchased Reaction Biology Europe
T3 sequence (Q13470 1-666): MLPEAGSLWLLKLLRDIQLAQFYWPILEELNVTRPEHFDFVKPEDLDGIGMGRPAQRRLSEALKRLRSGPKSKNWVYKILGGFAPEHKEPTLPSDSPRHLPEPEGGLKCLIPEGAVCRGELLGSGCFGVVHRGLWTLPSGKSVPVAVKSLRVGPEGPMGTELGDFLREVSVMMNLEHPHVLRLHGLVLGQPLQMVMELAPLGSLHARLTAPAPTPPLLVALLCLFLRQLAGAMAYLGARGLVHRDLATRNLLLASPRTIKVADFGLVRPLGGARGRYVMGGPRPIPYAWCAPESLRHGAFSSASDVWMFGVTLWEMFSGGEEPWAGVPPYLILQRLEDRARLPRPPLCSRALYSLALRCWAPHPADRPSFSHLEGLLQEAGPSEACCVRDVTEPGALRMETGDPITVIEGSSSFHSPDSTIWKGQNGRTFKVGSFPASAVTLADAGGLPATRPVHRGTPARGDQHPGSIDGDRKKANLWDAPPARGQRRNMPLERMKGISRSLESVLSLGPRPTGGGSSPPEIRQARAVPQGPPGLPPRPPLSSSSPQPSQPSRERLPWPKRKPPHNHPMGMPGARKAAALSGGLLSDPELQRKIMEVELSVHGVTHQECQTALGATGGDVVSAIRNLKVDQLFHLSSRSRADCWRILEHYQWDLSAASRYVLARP

340 wild-type kinases [4] = target: T4, 340 wild-type kinases (Homo sapiens, UniProt P05771)
T4 construct: purchased Reaction Biology Europe

340 wild-type kinases [5] = target: T5, 340 wild-type kinases (Homo sapiens, UniProt P29320)
T5 construct: purchased Reaction Biology Europe
T5 sequence (P29320 21-983): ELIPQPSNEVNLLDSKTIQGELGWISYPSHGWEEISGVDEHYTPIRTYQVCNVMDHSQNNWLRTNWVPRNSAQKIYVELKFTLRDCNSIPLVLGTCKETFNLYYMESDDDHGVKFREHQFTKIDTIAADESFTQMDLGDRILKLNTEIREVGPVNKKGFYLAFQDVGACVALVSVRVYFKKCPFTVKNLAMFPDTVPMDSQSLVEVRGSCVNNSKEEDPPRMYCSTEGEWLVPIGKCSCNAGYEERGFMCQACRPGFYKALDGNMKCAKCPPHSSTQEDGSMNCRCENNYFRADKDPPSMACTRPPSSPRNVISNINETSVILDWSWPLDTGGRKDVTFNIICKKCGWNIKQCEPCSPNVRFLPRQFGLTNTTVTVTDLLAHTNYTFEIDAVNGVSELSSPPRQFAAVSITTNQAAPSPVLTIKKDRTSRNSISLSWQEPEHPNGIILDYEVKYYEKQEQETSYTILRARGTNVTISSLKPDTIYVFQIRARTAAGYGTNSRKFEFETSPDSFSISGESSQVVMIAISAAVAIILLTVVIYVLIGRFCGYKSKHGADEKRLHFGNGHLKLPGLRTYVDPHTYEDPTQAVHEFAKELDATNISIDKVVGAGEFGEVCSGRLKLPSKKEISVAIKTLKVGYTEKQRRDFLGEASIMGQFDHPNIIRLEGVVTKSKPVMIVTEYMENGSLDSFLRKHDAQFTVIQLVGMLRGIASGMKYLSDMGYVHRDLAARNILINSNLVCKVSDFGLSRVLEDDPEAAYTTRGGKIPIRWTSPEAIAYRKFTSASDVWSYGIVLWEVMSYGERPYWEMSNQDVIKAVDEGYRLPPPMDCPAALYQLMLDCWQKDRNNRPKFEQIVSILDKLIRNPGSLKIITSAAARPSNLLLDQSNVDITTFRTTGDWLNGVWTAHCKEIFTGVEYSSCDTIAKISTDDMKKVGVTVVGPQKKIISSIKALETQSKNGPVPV

340 wild-type kinases [6] = target: T6, 340 wild-type kinases (Homo sapiens, UniProt P16234)
T6 construct: purchased Reaction Biology Europe

340 wild-type kinases [7] = target: T7, 340 wild-type kinases (Homo sapiens, UniProt P06493)
T7 construct: purchased Reaction Biology Europe

340 wild-type kinases [8] = target: T8, 340 wild-type kinases (Homo sapiens, UniProt P30291)
T8 construct: purchased Reaction Biology Europe

340 wild-type kinases [9] = target: T9, 340 wild-type kinases (Homo sapiens, UniProt P06241)
T9 construct: purchased Reaction Biology Europe
T9 sequence (P06241 whole entry): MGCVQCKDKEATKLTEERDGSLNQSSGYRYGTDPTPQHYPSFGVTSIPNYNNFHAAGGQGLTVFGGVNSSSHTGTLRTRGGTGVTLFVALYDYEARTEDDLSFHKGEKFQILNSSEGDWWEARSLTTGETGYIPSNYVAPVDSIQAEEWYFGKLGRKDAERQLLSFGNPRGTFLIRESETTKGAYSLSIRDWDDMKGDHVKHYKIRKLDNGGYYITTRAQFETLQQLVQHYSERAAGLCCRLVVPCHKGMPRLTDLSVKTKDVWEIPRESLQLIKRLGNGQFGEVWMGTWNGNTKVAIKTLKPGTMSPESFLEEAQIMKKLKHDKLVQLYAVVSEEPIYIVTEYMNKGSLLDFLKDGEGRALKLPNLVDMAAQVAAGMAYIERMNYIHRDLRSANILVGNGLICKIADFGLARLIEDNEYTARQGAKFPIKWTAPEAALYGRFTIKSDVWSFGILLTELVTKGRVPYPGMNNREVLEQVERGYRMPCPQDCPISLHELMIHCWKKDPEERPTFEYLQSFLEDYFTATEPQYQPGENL

T7 sequence (P06493 whole entry): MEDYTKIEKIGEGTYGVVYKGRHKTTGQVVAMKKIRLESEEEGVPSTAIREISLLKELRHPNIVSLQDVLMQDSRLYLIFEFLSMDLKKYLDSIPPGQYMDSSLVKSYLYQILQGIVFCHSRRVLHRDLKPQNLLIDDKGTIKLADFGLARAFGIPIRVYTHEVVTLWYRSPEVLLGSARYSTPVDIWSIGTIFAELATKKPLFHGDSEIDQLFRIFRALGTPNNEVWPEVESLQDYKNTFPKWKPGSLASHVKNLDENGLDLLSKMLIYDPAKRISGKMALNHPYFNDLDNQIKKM
T2 sequence (P08581 25-1390): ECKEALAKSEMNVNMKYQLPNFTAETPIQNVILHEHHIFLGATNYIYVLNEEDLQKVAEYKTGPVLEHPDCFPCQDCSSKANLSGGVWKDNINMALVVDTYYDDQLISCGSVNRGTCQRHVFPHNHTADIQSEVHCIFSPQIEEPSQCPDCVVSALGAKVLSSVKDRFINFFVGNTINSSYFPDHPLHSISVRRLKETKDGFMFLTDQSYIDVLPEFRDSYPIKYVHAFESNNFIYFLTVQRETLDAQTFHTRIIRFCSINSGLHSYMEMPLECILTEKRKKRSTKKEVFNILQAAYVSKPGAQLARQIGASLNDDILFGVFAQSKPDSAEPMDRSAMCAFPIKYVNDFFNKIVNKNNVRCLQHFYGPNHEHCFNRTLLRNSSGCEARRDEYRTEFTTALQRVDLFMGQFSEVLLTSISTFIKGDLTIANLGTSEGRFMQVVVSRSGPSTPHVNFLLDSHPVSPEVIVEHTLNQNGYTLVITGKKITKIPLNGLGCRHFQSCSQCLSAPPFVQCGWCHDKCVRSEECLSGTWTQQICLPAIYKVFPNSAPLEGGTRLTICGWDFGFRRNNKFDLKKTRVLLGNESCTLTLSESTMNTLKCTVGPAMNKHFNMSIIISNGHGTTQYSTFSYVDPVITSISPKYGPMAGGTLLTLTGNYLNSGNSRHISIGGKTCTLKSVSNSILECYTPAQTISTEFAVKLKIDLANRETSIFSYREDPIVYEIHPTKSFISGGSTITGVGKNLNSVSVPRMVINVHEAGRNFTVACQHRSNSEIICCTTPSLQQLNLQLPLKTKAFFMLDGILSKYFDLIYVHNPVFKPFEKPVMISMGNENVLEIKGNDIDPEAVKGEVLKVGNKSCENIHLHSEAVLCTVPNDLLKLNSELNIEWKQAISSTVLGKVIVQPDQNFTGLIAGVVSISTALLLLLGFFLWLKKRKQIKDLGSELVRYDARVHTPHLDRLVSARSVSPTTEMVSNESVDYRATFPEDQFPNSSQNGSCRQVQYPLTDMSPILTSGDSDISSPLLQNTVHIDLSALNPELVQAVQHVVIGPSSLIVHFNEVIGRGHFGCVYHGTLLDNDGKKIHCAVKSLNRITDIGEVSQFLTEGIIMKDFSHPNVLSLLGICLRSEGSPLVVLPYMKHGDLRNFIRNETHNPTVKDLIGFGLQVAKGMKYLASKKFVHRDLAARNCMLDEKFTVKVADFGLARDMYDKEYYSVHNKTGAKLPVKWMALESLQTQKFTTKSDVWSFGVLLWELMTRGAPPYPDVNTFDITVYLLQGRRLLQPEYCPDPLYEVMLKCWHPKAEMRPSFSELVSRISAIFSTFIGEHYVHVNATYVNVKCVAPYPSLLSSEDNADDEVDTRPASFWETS
T1 sequence (Q15418 whole entry): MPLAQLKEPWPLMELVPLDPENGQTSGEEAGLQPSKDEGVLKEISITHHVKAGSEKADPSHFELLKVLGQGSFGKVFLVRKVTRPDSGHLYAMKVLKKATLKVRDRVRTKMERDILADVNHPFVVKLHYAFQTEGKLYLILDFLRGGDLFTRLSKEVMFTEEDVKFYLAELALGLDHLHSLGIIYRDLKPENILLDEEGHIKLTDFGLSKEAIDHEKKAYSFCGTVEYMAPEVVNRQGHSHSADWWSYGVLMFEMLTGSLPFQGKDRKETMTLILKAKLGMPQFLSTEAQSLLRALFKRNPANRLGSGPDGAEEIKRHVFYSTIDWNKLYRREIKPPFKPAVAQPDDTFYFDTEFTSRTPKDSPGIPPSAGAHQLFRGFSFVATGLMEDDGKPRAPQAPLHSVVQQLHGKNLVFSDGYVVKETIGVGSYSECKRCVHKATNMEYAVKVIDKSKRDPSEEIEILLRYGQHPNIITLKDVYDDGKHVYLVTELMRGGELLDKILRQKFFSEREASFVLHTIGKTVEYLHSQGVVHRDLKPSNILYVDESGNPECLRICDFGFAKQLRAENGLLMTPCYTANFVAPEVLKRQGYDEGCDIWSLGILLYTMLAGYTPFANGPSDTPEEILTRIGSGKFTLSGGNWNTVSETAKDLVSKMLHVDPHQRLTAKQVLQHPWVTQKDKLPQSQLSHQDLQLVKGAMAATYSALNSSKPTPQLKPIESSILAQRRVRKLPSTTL
T8 sequence (P30291 whole entry): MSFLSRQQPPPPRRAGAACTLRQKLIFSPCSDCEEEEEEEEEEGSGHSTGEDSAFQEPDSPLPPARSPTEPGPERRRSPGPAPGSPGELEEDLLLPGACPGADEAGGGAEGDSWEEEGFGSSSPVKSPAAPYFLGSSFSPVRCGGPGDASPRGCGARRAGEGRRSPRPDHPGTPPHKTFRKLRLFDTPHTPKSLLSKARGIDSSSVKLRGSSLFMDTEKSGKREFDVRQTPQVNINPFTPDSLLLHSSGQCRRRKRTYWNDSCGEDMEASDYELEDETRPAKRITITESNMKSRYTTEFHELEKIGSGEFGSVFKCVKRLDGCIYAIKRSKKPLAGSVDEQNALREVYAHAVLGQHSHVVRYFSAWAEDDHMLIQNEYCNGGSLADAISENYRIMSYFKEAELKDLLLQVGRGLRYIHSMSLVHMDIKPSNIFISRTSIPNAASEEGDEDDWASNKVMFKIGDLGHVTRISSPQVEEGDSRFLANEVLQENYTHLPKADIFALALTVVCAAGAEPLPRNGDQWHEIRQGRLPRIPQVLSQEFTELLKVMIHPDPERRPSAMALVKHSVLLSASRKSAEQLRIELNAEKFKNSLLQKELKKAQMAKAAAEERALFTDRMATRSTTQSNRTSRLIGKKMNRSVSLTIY
T6 sequence (P16234 24-1089): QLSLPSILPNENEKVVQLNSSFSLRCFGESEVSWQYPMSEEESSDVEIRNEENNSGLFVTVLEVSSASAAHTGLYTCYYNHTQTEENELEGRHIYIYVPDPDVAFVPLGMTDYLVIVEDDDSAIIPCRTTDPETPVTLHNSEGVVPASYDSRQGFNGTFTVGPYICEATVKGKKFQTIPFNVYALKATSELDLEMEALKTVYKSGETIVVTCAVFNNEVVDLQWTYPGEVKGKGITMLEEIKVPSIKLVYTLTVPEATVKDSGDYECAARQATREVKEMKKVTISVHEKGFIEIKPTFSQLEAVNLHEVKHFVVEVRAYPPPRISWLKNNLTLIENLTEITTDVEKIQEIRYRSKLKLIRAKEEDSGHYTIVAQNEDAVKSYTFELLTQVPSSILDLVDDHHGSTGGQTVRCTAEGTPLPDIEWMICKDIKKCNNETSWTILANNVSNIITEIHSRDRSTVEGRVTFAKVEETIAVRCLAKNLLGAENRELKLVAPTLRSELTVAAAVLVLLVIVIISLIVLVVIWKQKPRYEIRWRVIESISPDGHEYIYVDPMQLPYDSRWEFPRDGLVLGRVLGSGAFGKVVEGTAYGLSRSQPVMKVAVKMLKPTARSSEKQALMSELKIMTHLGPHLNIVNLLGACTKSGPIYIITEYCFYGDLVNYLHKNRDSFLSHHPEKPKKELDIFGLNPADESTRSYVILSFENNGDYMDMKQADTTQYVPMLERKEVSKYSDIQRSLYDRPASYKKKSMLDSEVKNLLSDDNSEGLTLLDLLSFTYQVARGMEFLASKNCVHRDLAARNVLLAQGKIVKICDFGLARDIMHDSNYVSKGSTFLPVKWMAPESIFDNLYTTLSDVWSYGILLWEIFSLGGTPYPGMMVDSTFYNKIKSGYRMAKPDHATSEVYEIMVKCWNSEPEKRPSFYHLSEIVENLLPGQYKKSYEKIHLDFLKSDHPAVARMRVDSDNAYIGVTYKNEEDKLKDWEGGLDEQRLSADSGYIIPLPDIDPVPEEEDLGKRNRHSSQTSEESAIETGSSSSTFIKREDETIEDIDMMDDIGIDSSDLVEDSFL

Structure (SMILES): CNC(=O)c1ccc2c(c1)C(=O)c1ccc(Nc3ccc(F)c(NC(=O)C4CC4)c3)cc1CC2 [Compound 2015]
- remaining activity at 0.2 µM (340 wild-type kinases [1]; 0.2 µM 2015, read-out: RPS6KA1 residual activity): 100%
- remaining activity at 1 µM (340 wild-type kinases [1]; 1 µM 2015, read-out: RPS6KA1 residual activity): 94.3%
- remaining activity at 0.2 µM (340 wild-type kinases [1]; RPS6KA1, 0.2 µM, read-out: residual activity): 100%
- remaining activity at 1 µM (340 wild-type kinases [1]; RPS6KA1, 1 µM, read-out: residual activity): 94.3%
- remaining activity at 0.2 µM (340 wild-type kinases [2]; 0.2 µM 2015, read-out: MET residual activity): 96.7%
- remaining activity at 1 µM (340 wild-type kinases [2]; 1 µM 2015, read-out: MET residual activity): 93.5%
- remaining activity at 0.2 µM (340 wild-type kinases [2]; MET, 0.2 µM, read-out: residual activity): 96.7%
- remaining activity at 1 µM (340 wild-type kinases [2]; MET, 1 µM, read-out: residual activity): 93.5%
- remaining activity at 0.2 µM (340 wild-type kinases [3]; 0.2 µM 2015, read-out: TNK1 residual activity): 92.8%
- remaining activity at 1 µM (340 wild-type kinases [3]; 1 µM 2015, read-out: TNK1 residual activity): 85.3%
- remaining activity at 0.2 µM (340 wild-type kinases [3]; TNK1, 0.2 µM, read-out: residual activity): 92.8%
- remaining activity at 1 µM (340 wild-type kinases [3]; TNK1, 1 µM, read-out: residual activity): 85.3%
- remaining activity at 0.2 µM (340 wild-type kinases [4]; 0.2 µM 2015, read-out: PKCbeta1 residual activity): 109%
- remaining activity at 1 µM (340 wild-type kinases [4]; 1 µM 2015, read-out: PKCbeta1 residual activity): 100%
- remaining activity at 0.2 µM (340 wild-type kinases [4]; PKCbeta1, 0.2 µM, read-out: residual activity): 109%
- remaining activity at 1 µM (340 wild-type kinases [4]; PKCbeta1, 1 µM, read-out: residual activity): 100%
- remaining activity at 0.2 µM (340 wild-type kinases [4]; PKCbeta2, 0.2 µM, read-out: residual activity): 103%
- remaining activity at 1 µM (340 wild-type kinases [4]; PKCbeta2, 1 µM, read-out: residual activity): 109%
- remaining activity at 0.2 µM (340 wild-type kinases [5]; 0.2 µM 2015, read-out: EPHA3 residual activity): 100%
- remaining activity at 1 µM (340 wild-type kinases [5]; 1 µM 2015, read-out: EPHA3 residual activity): 96.4%
- remaining activity at 0.2 µM (340 wild-type kinases [5]; EPHA3, 0.2 µM, read-out: residual activity): 100%
- remaining activity at 1 µM (340 wild-type kinases [5]; EPHA3, 1 µM, read-out: residual activity): 96.3%
- remaining activity at 0.2 µM (340 wild-type kinases [6]; 0.2 µM 2015, read-out: PDGFRalpha residual activity): 102%
- remaining activity at 1 µM (340 wild-type kinases [6]; 1 µM 2015, read-out: PDGFRalpha residual activity): 95.4%
- remaining activity at 0.2 µM (340 wild-type kinases [6]; PDGFRalpha, 0.2 µM, read-out: residual activity): 102%
- remaining activity at 1 µM (340 wild-type kinases [6]; PDGFRalpha, 1 µM, read-out: residual activity): 95.4%
- remaining activity at 0.2 µM (340 wild-type kinases [7]; 0.2 µM 2015, read-out: CDK1/CycA2 residual activity): 99.4%
- remaining activity at 0.2 µM (340 wild-type kinases [7]; 0.2 µM 2015, read-out: CDK1/CycB1 residual activity): 92.8%
- remaining activity at 0.2 µM (340 wild-type kinases [7]; 0.2 µM 2015, read-out: CDK1/CycE1 residual activity): 100%
- remaining activity at 1 µM (340 wild-type kinases [7]; 1 µM 2015, read-out: CDK1/CycA2 residual activity): 101%
- remaining activity at 1 µM (340 wild-type kinases [7]; 1 µM 2015, read-out: CDK1/CycB1 residual activity): 83.7%
- remaining activity at 1 µM (340 wild-type kinases [7]; 1 µM 2015, read-out: CDK1/CycE1 residual activity): 90.1%
- remaining activity at 0.2 µM (340 wild-type kinases [7]; CDK1/CycA2, 0.2 µM, read-out: residual activity): 99.3%
- remaining activity at 1 µM (340 wild-type kinases [7]; CDK1/CycA2, 1 µM, read-out: residual activity): 101%
- remaining activity at 0.2 µM (340 wild-type kinases [7]; CDK1/CycB1, 0.2 µM, read-out: residual activity): 92.8%
- remaining activity at 1 µM (340 wild-type kinases [7]; CDK1/CycB1, 1 µM, read-out: residual activity): 83.7%
- remaining activity at 0.2 µM (340 wild-type kinases [7]; CDK1/CycE1, 0.2 µM, read-out: residual activity): 100%
- remaining activity at 1 µM (340 wild-type kinases [7]; CDK1/CycE1, 1 µM, read-out: residual activity): 90.1%
- remaining activity at 0.2 µM (340 wild-type kinases [8]; 0.2 µM 2015, read-out: WEE1 residual activity): 91.7%
- remaining activity at 1 µM (340 wild-type kinases [8]; 1 µM 2015, read-out: WEE1 residual activity): 83.3%
- remaining activity at 0.2 µM (340 wild-type kinases [8]; WEE1, 0.2 µM, read-out: residual activity): 91.7%
- remaining activity at 1 µM (340 wild-type kinases [8]; WEE1, 1 µM, read-out: residual activity): 83.3%
- remaining activity at 0.2 µM (340 wild-type kinases [9]; 0.2 µM 2015, read-out: FYN residual activity): 119%
- remaining activity at 1 µM (340 wild-type kinases [9]; 1 µM 2015, read-out: FYN residual activity): 101%
- remaining activity at 0.2 µM (340 wild-type kinases [9]; FYN, 0.2 µM, read-out: residual activity): 119%
- remaining activity at 1 µM (340 wild-type kinases [9]; FYN, 1 µM, read-out: residual activity): 101%
